# pIC50: −log10 of the molar value.
# Tests used:
# RAW264.7 = assay: Anti-inflammatory activity in mouse RAW264.7 cells assessed as inhibition of nitric oxide production; format: functional, cell-based
# [1] = Cytotoxicity in human HELF cells assessed as reduction in cell viability incubated for 24 hrs by MTT assay; format: cell-based
# AGS = assay: Cytotoxicity in human AGS cells assessed as reduction in cell viability incubated for 24 hrs by MTT assay; format: functional, cell-based
# HepG2 [2] = assay: Cytotoxicity in human HepG2 cells assessed as reduction in cell viability incubated for 24 hrs by MTT assay; format: functional, cell-based; conditions: HepG2, 24 h
# HeLa [3] = assay: Cytotoxicity in human HeLa cells assessed as reduction in cell viability incubated for 24 hrs by MTT assay; format: functional, cell-based
# HeLa [4] = assay: Cytotoxicity in human HeLa cells assessed as reduction in cell viability incubated for 72 hrs by CCK8 assay; format: functional, cell-based
# DU-145 = assay: Cytotoxicity in human DU145 cells assessed as reduction in cell viability incubated for 96 hrs by SRB assay; format: functional, cell-based; conditions: DU-145, 96 h
# TERT-RPE1 = assay: Cytotoxicity in human hTERT-RPE1 cells assessed as reduction in cell viability incubated for 24 hrs by MTT assay; format: functional, cell-based; conditions: RPE-1, 24 h
# H9c2 = assay: Cytotoxicity in rat H9c2 cells assessed as reduction in cell viability incubated for 72 hrs by MTT assay; format: cell-based; conditions: H9c2, 72 h
# HeLa [5] = assay: Cytotoxicity in human HeLa cells assessed as reduction in cell viability incubated for 72 hrs by MTT assay; format: functional, cell-based
# HCT-8 = assay: Cytotoxicity in human HCT8 cells assessed as reduction in cell viability incubated for 96 hrs by SRB assay; format: functional, cell-based; conditions: HCT-8, 96 h
# CT26 = assay: Cytotoxicity in mouse CT26 cells assessed as reduction in cell viability incubated for 96 hrs by SRB assay; format: functional, cell-based; conditions: CT26, 96 h
# MDA-MB-231 [6] = assay: Cytotoxicity in human MDA-MB-231 cells assessed as reduction in cell viability incubated for 96 hrs by SRB assay; format: functional, cell-based; conditions: MDA-MB-231, 96 h
# HCT-116 = assay: Cytotoxicity in human HCT116 cells assessed as reduction in cell viability incubated for 96 hrs by SRB assay; format: functional, cell-based; conditions: HCT-116, 96 h
# MDA-MB-231 [7] = assay: Cytotoxicity in human MDA-MB-231 cells assessed as reduction in cell viability incubated for 24 hrs by MTT assay; format: functional, cell-based; conditions: MDA-MB-231, 24 h
# PC-3 = assay: Cytotoxicity in human PC3 cells assessed as reduction in cell viability incubated for 96 hrs by SRB assay; format: functional, cell-based; conditions: PC-3, 96 h
# 4T1 = assay: Cytotoxicity in mouse 4T1 cells assessed as reduction in cell viability incubated for 96 hrs by SRB assay; format: functional, cell-based; conditions: 4T1, 96 h
# HepG2 [8] = assay: Cytotoxicity in human HepG2 cells assessed as reduction in cell viability incubated for 72 hrs by MTT assay; format: functional, cell-based; conditions: HepG2, 72 h
# MDCK = assay: Cytotoxicity in canine MDCK cells assessed as reduction in cell viability incubated for 72 hrs by MTT assay; format: cell-based; conditions: Canis lupus familiaris
# EA.hy 926 = assay: Cytotoxicity in human EAhy926 cells assessed as reduction in cell viability incubated for 72 hrs by MTT assay; format: cell-based; conditions: EA.hy 926, 72 h
# HT-29 [9] = assay: Cytotoxicity in human HT-29 cells assessed as reduction in cell viability incubated for 72 hrs by MTT assay; format: functional, cell-based; conditions: HT-29, 72 h
# MCF7 = assay: Cytotoxicity in human MCF7 cells assessed as reduction in cell viability incubated for 24 hrs by MTT assay; format: functional, cell-based; conditions: MCF7, 24 h
# HT-29 [10] = assay: Cytotoxicity in human HT-29 cells assessed as reduction in cell viability incubated for 96 hrs by SRB assay; format: functional, cell-based; conditions: HT-29, 96 h
# Bel-7402 = assay: Cytotoxicity in human Bel7402 cells assessed as reduction in cell viability incubated for 72 hrs by MTT assay; format: functional, cell-based; conditions: Bel-7402, 72 h
# H4 = assay: Cytotoxicity in human H4 cells assessed as reduction in cell viability incubated for 72 hrs by MTT assay; format: functional, cell-based; conditions: H4, 72 h
compound,measurement,setting,value
CC1(C)CC[C@]2(C(=O)n3ccnc3)CC[C@]3(C)[C@H](C(=O)C=C4[C@@]5(C)C=C(C#N)C(=O)C(C)(C)[C@@H]5CC[C@]43C)[C@@H]2C1,pIC50,RAW264.7,6.00
CC(=O)O[C@H]1CC[C@]2(C)[C@H]3CC=C4[C@@H]5[C@@H](C)[C@H](C)CC[C@]5(C(=O)NCCN)CC[C@@]4(C)[C@]3(C)CC[C@H]2C1(C)C,pIC50,[1],4.74
same,pIC50,AGS,4.84
same,pIC50,HepG2 [2],4.79
same,pIC50,HeLa [3],5.36
C[C@H]1[C@H](C)CC[C@]2(C(=O)NCCN)CC[C@]3(C)C(=CC[C@@H]4[C@@]5(C)CC[C@H](O)C(C)(C)[C@@H]5CC[C@]43C)[C@H]12,pIC50,[1],4.81
same,pIC50,AGS,4.75
same,pIC50,HepG2 [2],4.86
same,pIC50,HeLa [3],4.84
COC(=O)[C@]12CC[C@@H](C)[C@H](C)[C@H]1C1=CC[C@@H]3[C@@]4(C)C=C(C#N)C(=O)C(C)(C)[C@@H]4CC[C@@]3(C)[C@]1(C)CC2,pIC50,RAW264.7,4.77
CC(=O)O[C@H]1CC[C@]2(C)[C@H]3CC=C4[C@@H]5[C@@H](C)[C@H](C)CC[C@]5(C(=O)NCCCCN)CC[C@@]4(C)[C@]3(C)CC[C@H]2C1(C)C,pIC50,[1],4.60
same,pIC50,AGS,4.85
same,pIC50,HepG2 [2],4.80
same,pIC50,HeLa [3],5.38
C[C@H]1[C@H](C)CC[C@]2(C(=O)NCCCCCCN)CC[C@]3(C)C(=CC[C@@H]4[C@@]5(C)CC[C@H](O)C(C)(C)[C@@H]5CC[C@]43C)[C@H]12,pIC50,[1],4.91
same,pIC50,AGS,4.78
same,pIC50,HepG2 [2],4.87
same,pIC50,HeLa [3],4.88
C[C@H]1[C@H](C)CC[C@]2(C#N)CC[C@]3(C)C(=CC[C@@H]4[C@@]5(C)C=C(C#N)C(=O)C(C)(C)[C@@H]5CC[C@]43C)[C@H]12,pIC50,RAW264.7,5.15 to 6.00
CC(=O)O[C@H]1CC[C@]2(C)[C@H]3CC=C4[C@@H]5[C@@H](C)[C@H](C)CC[C@]5(C(=O)NCCCCCCN)CC[C@@]4(C)[C@]3(C)CC[C@H]2C1(C)C,pIC50,[1],4.83
same,pIC50,AGS,4.89
same,pIC50,HepG2 [2],5.14
same,pIC50,HeLa [3],5.42
COC(=O)C1CCCN1C(=O)[C@]12CC[C@@H](C)[C@H](C)[C@H]1C1=CC[C@@H]3[C@@]4(C)C[C@@H](O)[C@H](O)[C@@](C)(CO)[C@@H]4CC[C@@]3(C)[C@]1(C)CC2 (stereo partly specified),pIC50,HeLa [4],4.67
C[C@H]1[C@H](C)CC[C@@]23CC[C@@]4(C)[C@]5(C)CC[C@H]6C(C)(C)C(=O)C(C#N)=C[C@]6(C)C5=CC(=O)[C@]4(OC2=O)[C@H]13,pIC50,RAW264.7,5.10
C[C@H]1[C@H](C)CC[C@]2(C(=O)n3ccnc3)CC[C@]3(C)C(=CC[C@@H]4[C@@]5(C)C=C(C#N)C(=O)C(C)(C)[C@@H]5CC[C@]43C)[C@H]12,pIC50,RAW264.7,5.30
C[C@H]1[C@H](C)CC[C@]2(C(=O)NCCCCN)CC[C@]3(C)C(=CC[C@@H]4[C@@]5(C)CC[C@H](O)C(C)(C)[C@@H]5CC[C@]43C)[C@H]12,pIC50,[1],4.82
same,pIC50,AGS,4.76
same,pIC50,HepG2 [2],4.84
same,pIC50,HeLa [3],4.84
CC1(C)[C@@H](O)CC[C@]2(C)[C@H]3C(=O)C=C4[C@H]5C[C@@](C)(C(=O)O)CC[C@]5(C)CC[C@@]4(C)[C@]3(C)CC[C@@H]12,pIC50,DU-145,3.87
same,pIC50,TERT-RPE1,4.20
same,pIC50,H9c2,< 4.00
same,pIC50,HeLa [5],< 4.30
same,pIC50,HCT-8,4.09
same,pIC50,CT26,4.15
same,pIC50,MDA-MB-231 [6],3.99
same,pIC50,HCT-116,4.12
same,pIC50,MDA-MB-231 [7],4.07
same,pIC50,PC-3,4.06
same,pIC50,4T1,4.02
same,pIC50,HepG2 [8],< 4.30
same,pIC50,MDCK,< 4.00
same,pIC50,EA.hy 926,< 4.00
same,pIC50,HT-29 [9],< 4.30
same,pIC50,MCF7,4.12
same,pIC50,HT-29 [10],4.11
"Cc1c(O)c(O)cc2c1C(c1c[nH]c3cc(Cl)ccc13)C=C1C2(C)CC[C@@]2(C)[C@H]3C[C@](C)(C(=O)O)CC[C@]3(C)CC[C@]12C (single isomer, unassigned)",pIC50,Bel-7402,5.19
same,pIC50,H4,5.11
"COC(=O)[C@]1(C)CC[C@]2(C)CC[C@]3(C)C4=CC(c5c[nH]c6cc(C)ccc56)c5c(cc(OC)c(OC)c5C)C4(C)CC[C@@]3(C)[C@H]2C1 (single isomer, unassigned)",pIC50,Bel-7402,7.70
same,pIC50,H4,5.10
"CC(=O)Nc1ccc(SC2C=C3C(C)(CC[C@@]4(C)[C@@H]5C[C@](C)(C(=O)O)CC[C@]5(C)CC[C@]34C)c3cc(OC(C)=O)c(OC(C)=O)c(C)c32)cc1 (single isomer, unassigned)",pIC50,Bel-7402,6.34
same,pIC50,H4,6.46
"COC(=O)[C@]1(C)CC[C@]2(C)CC[C@]3(C)C4=CC(c5c[nH]c6ccc(OC)cc56)c5c(cc(OC)c(OC)c5C)C4(C)CC[C@@]3(C)[C@H]2C1 (single isomer, unassigned)",pIC50,Bel-7402,6.29
same,pIC50,H4,5.34
"COc1ccc2[nH]cc(C3C=C4C(C)(CC[C@@]5(C)[C@H]6C[C@](C)(C(=O)O)CC[C@]6(C)CC[C@]45C)c4cc(O)c(O)c(C)c43)c2c1 (single isomer, unassigned)",pIC50,Bel-7402,4.34
same,pIC50,H4,4.61
"Cc1ccc2c(C3C=C4C(C)(CC[C@@]5(C)[C@H]6C[C@](C)(C(=O)O)CC[C@]6(C)CC[C@]45C)c4cc(O)c(O)c(C)c43)c[nH]c2c1 (single isomer, unassigned)",pIC50,Bel-7402,5.26
same,pIC50,H4,5.18
"CC(=O)Oc1cc2c(c(C)c1OC(C)=O)C(Sc1ccc(C)cc1)C=C1C2(C)CC[C@@]2(C)[C@@H]3C[C@](C)(C(=O)O)CC[C@]3(C)CC[C@]12C (single isomer, unassigned)",pIC50,Bel-7402,6.35
same,pIC50,H4,6.43
"CC(=O)CC1C=C2C(C)(CC[C@@]3(C)[C@@H]4C[C@](C)(C(=O)O)CC[C@]4(C)CC[C@]23C)c2cc(OC(C)=O)c(OC(C)=O)c(C)c21 (single isomer, unassigned)",pIC50,Bel-7402,< 3.82
same,pIC50,H4,< 3.82
"COC(=O)[C@]1(C)CC[C@]2(C)CC[C@]3(C)C4=CC(c5cn(C)c6cc(Cl)ccc56)c5c(cc(OC)c(OC)c5C)C4(C)CC[C@@]3(C)[C@H]2C1 (single isomer, unassigned)",pIC50,Bel-7402,8.00
same,pIC50,H4,5.69
COC(=O)[C@]12CCC(C)(C)C[C@H]1[C@H]1C(=O)C=C3[C@@]4(C)C=C(C#N)C(=O)C(C)(C)[C@@H]4CC[C@@]3(C)[C@]1(C)CC2 [BARDOXOLONE METHYL],pIC50,RAW264.7,5.40
